# According to ChEMBL document CHEMBL1156023, “Grassystatins A-C from marine cyanobacteria, potent cathepsin E inhibitors that reduce antigen presentation” (J Med Chem, 2009):
# Square brackets hold non-standard residues; d marks the D form. Peptide text beside a SMILES is read from it. * marks the point of attachment. Sta = CC(C)C[C@H](N)[C@@H](O)CC(=O)O; NMe2Val = CC(C)[C@@H](C(=O)*)N(C)C; dNMeF = CN[C@H](Cc1ccccc1)C(=O)O; dHiv = CC(C)[C@@H](O)C(=O)O; Hiv = CC(C)[C@H](O)C(=O)O
# Key:
# [1] = biological target: Angiotensin-converting enzyme (Homo sapiens) (UniProt P12821); test: Inhibition of ACE1 assessed as residual activity at 10 uM after 10 to 15 mins by fluorescence assay relative to control
# [2] = biological target: Prothrombin (Homo sapiens) (UniProt P00734); test: Inhibition of thrombin alpha assessed as residual activity at 10 uM after 10 to 15 mins by fluorescence assay relative to control
# [3] = biological target: Matrix metalloproteinase-14 (Homo sapiens, UniProt P50281); test: Inhibition of MMP14 assessed as residual activity at 10 uM after 10 to 15 mins by fluorescence assay relative to control
# Stromelysin-1 = Stromelysin-1 (Homo sapiens, UniProt P08254); test: Inhibition of MMP3 assessed as residual activity at 10 uM after 10 to 15 mins by fluorescence assay relative to control
# Caspase-8 (Homo sapiens) = Caspase-8 (Homo sapiens) (UniProt Q14790); test: Inhibition of caspase 8 assessed as residual activity at 10 uM after 10 to 15 mins by fluorescence assay relative to control
# Caspase-3 (Homo sapiens) = Caspase-3 (Homo sapiens) (UniProt P42574); test: Inhibition of caspase 3 assessed as residual activity at 10 uM after 10 to 15 mins by fluorescence assay relative to control
# Renin (Homo sapiens) = Renin (Homo sapiens) (UniProt P00797); test: Inhibition of human renin assessed as residual activity at 10 uM after 10 to 15 mins by fluorescence assay relative to control
# Caspase-7 (Homo sapiens) = Caspase-7 (Homo sapiens) (UniProt P55210); test: Inhibition of caspase 7 assessed as residual activity at 10 uM after 10 to 15 mins by fluorescence assay relative to control
# [4] = biological target: Beta-secretase 1 (Homo sapiens) (UniProt P56817); test: Inhibition of BACE1 assessed as residual activity at 10 uM after 10 to 15 mins by fluorescence assay relative to control
# Caspase-4 (Mus musculus) = Caspase-4 (Mus musculus) (UniProt P70343); test: Inhibition of mouse caspase 11 assessed as residual activity at 10 uM after 10 to 15 mins by fluorescence assay relative to control
# Caspase-14 = Caspase-14 (Homo sapiens, UniProt P31944); test: Inhibition of caspase 14 after 10 to 15 mins by fluorescence assay
# Caspase-5 (Homo sapiens) = Caspase-5 (Homo sapiens) (UniProt P51878); test: Inhibition of caspase 5 assessed as residual activity at 10 uM after 10 to 15 mins by fluorescence assay relative to control
# [5] = biological target: Kallikrein-8 (Homo sapiens) (UniProt O60259); test: Inhibition of kallikrein 8 assessed as residual activity at 10 uM after 10 to 15 mins by fluorescence assay relative to control
# [6] = biological target: Cathepsin E (Homo sapiens) (UniProt P14091); conditions: 5.08 to 100000 nM
# [7] = biological target: Coagulation factor X (Homo sapiens) (UniProt P00742); test: Inhibition of factor 10a assessed as residual activity at 10 uM after 10 to 15 mins by fluorescence assay relative to control
# Neutrophil collagenase [8] = biological target: T1, Neutrophil collagenase (Homo sapiens, UniProt P22894); test: Inhibition of MMP8 catalytic domain after 10 to 15 mins by fluorescence assay
# [9] = biological target: Serine protease 1 (Bos taurus) (UniProt P00760); test: Inhibition of bovine pancreatic trypsin assessed as residual activity at 10 uM after 10 to 15 mins by fluorescence assay relative to control
# [10] = biological target: 72 kDa type IV collagenase (Homo sapiens, UniProt P08253); test: Inhibition of MMP2 after 10 to 15 mins by fluorescence assay
# Caspase-4 (Homo sapiens) = Caspase-4 (Homo sapiens) (UniProt P49662); test: Inhibition of caspase 4 assessed as residual activity at 10 uM after 10 to 15 mins by fluorescence assay relative to control
# [11] = biological target: Vitamin K-dependent protein C (Homo sapiens, UniProt P04070); test: Inhibition of activated protein C assessed as residual activity at 10 uM after 10 to 15 mins by fluorescence assay in presence of 50% […] relative to control
# [12] = biological target: Pro-cathepsin H (Homo sapiens) (UniProt P09668); test: Inhibition of cathepsin H assessed as residual activity at 10 uM after 10 to 15 mins by fluorescence assay relative to control
# Neutrophil collagenase [13] = biological target: T1, Neutrophil collagenase; test: Inhibition of MMP8 assessed as residual activity at 10 uM after 10 to 15 mins by fluorescence assay relative to control
# Target sequence in this assay (P22894 101-467 limits assumed): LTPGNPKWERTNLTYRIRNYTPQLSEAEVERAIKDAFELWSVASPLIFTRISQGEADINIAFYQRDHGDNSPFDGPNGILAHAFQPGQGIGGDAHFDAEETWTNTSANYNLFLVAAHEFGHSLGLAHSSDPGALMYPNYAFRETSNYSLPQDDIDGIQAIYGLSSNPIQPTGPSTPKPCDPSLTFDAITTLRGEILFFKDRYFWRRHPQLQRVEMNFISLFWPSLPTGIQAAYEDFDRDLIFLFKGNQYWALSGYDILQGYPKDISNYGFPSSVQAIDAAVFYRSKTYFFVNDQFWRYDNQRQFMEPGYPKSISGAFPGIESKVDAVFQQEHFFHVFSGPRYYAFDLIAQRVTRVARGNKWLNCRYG
# Stromelysin-2 = Stromelysin-2 (Homo sapiens, UniProt P09238); test: Inhibition of MMP10 catalytic domain after 10 to 15 mins by fluorescence assay
# [14] = biological target: Dipeptidyl peptidase 9 (Homo sapiens) (UniProt Q86TI2); test: Inhibition of DPP9 assessed as residual activity at 10 uM after 10 to 15 mins by fluorescence assay relative to control
# [15] = biological target: Caspase-10 (Homo sapiens) (UniProt Q92851); test: Inhibition of caspase 10 assessed as residual activity at 10 uM after 10 to 15 mins by fluorescence assay relative to control
# [16] = biological target: Kallikrein-5 (Homo sapiens) (UniProt Q9Y337); test: Inhibition of kallikrein 5 assessed as residual activity at 10 uM after 10 to 15 mins by fluorescence assay relative to control
# Kallikrein-5 (Homo sapiens), sequence (Q9Y337 whole entry): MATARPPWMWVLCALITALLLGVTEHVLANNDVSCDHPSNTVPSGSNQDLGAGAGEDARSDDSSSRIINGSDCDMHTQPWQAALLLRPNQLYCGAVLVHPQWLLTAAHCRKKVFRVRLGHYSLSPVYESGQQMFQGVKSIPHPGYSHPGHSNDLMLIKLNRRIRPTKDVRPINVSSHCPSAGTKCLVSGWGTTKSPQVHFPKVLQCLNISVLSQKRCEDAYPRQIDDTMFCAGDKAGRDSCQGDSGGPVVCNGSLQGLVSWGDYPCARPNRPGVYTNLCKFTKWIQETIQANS
# Caspase-7 (Homo sapiens), sequence (P55210 24-198 limits assumed): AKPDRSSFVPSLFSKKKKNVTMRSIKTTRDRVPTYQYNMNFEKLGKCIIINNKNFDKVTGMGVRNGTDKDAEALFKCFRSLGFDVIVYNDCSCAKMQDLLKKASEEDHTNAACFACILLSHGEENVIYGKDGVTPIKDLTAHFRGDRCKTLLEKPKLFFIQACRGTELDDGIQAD
# Caspase-7 (Homo sapiens), sequence (P55210 207-303 limits assumed): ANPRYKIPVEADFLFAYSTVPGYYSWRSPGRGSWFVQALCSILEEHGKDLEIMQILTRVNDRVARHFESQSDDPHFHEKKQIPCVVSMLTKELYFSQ
# Caspase-4 (Mus musculus), sequence (P70343 81-266 limits assumed): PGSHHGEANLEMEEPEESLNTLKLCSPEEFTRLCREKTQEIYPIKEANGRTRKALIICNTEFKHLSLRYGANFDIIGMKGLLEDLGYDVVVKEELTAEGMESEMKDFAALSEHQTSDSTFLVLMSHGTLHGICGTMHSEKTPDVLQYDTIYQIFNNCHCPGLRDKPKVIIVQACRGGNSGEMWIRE
# Caspase-4 (Mus musculus), sequence (P70343 286-373 limits assumed): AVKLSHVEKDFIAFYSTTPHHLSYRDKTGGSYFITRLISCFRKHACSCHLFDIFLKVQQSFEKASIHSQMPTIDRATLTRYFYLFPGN
# Cathepsin E (Homo sapiens), sequence (P14091 whole entry): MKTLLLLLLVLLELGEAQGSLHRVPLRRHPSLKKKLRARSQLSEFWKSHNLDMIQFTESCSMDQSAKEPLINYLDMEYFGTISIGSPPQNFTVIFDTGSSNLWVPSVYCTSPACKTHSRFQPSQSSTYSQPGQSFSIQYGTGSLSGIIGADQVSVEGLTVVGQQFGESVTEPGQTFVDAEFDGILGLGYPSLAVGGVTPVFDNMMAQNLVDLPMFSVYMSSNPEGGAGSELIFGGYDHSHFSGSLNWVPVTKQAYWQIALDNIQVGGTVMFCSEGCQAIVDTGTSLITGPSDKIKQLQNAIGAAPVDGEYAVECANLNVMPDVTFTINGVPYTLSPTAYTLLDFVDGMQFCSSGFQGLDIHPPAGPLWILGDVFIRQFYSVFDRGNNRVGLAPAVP
# Serine protease 1 (Bos taurus), sequence (P00760 whole entry): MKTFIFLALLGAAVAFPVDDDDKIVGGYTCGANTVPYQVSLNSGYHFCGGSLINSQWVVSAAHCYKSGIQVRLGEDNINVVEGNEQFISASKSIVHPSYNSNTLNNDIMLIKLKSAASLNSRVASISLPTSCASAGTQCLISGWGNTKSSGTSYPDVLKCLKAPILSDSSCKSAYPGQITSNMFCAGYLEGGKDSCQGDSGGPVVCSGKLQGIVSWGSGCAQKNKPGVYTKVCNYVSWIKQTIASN
# Coagulation factor X (Homo sapiens), sequence (P00742 41-179 limits assumed): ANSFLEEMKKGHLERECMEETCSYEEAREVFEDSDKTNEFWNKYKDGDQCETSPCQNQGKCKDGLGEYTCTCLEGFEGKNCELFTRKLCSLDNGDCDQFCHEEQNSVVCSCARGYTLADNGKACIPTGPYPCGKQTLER
# Coagulation factor X (Homo sapiens), sequence (P00742 235-488 limits assumed): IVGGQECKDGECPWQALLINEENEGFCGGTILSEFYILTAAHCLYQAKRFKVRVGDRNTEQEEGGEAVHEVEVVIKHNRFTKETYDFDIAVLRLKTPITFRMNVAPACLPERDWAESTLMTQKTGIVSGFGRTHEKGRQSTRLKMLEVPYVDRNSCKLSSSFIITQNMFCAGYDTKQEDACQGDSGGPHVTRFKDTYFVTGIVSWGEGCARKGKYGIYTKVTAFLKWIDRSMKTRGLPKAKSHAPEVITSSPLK
# Vitamin K-dependent protein C, sequence (P04070 43-197 limits assumed): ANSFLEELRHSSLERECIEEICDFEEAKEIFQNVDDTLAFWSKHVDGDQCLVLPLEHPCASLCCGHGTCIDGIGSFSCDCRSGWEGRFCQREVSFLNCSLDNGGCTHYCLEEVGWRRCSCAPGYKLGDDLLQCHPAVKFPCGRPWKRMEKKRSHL
# Vitamin K-dependent protein C, sequence (P04070 212-461 limits assumed): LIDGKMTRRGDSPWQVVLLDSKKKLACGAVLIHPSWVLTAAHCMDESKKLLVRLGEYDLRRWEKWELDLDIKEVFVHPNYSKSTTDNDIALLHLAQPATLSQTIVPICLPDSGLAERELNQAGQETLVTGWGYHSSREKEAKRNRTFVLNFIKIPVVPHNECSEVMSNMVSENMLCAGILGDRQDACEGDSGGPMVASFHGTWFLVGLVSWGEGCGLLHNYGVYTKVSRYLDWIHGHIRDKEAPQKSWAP
# Caspase-4 (Homo sapiens), sequence (P49662 81-270 limits assumed): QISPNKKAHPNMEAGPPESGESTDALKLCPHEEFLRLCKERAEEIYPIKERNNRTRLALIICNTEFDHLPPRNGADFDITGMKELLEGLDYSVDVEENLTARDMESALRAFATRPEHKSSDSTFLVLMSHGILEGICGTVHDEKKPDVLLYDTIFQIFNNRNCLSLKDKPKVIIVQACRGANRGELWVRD
# Caspase-4 (Homo sapiens), sequence (P49662 290-377 limits assumed): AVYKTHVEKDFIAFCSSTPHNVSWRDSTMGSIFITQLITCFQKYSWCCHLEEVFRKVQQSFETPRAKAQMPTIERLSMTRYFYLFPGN
# Stromelysin-2, sequence (P09238 whole entry, the tested form may be a part): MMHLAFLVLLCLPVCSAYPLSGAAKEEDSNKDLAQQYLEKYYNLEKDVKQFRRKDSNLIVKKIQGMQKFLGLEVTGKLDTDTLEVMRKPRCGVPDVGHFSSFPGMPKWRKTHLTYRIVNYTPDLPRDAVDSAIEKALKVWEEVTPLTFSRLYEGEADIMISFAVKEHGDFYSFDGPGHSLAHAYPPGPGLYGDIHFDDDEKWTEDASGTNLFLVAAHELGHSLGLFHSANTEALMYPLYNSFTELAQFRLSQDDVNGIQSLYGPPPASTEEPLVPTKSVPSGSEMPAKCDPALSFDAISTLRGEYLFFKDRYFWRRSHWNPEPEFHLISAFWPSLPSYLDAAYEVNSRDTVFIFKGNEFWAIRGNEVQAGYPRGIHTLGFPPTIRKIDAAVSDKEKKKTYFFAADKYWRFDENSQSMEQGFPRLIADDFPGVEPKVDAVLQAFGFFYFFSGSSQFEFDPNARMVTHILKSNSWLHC
# Kallikrein-8 (Homo sapiens), sequence (O60259 whole entry): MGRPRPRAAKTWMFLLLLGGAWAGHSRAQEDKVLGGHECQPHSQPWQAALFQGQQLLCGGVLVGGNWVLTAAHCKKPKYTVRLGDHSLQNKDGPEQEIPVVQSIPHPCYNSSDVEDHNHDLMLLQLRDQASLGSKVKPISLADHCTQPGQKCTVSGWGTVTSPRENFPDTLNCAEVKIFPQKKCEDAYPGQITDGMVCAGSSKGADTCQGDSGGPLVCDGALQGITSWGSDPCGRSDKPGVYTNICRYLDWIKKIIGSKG
# Pro-cathepsin H (Homo sapiens), sequence (P09668 116-335 limits assumed, other chains not shown): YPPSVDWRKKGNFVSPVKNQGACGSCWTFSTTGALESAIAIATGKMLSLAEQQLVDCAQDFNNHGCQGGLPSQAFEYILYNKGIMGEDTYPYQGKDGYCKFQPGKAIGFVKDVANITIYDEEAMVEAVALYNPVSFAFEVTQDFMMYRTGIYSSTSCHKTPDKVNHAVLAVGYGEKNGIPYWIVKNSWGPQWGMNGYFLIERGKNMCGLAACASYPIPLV
# Caspase-8 (Homo sapiens), sequence (Q14790 217-374 limits assumed): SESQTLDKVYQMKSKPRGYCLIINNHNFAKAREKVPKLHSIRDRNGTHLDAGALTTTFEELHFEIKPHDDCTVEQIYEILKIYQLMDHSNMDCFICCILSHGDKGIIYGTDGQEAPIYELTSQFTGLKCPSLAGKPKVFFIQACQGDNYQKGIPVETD
# Caspase-8 (Homo sapiens), sequence (Q14790 385-479 limits assumed): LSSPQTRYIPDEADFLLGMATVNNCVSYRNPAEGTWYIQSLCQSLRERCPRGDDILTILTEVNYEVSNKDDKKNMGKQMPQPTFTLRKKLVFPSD
# Beta-secretase 1 (Homo sapiens), sequence (P56817 whole entry): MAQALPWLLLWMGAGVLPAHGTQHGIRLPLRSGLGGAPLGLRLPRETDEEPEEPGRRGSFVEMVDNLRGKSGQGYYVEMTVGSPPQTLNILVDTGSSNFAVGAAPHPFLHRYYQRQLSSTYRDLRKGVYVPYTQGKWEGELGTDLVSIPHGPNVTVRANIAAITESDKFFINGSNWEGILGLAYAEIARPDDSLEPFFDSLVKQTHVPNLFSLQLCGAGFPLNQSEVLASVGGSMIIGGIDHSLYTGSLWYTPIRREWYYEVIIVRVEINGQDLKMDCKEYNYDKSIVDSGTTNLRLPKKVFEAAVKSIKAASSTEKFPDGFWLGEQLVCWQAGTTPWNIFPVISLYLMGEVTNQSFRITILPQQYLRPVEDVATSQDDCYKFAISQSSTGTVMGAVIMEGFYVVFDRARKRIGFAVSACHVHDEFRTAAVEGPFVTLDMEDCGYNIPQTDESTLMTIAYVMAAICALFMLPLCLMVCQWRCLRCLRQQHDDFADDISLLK
smiles,measurement,setting,value
COC(=O)[C@@H]1CCCN1C(=O)[C@@H](Cc1ccccc1)N(C)C(=O)[C@H](C)NC(=O)[C@@H](NC(=O)C[C@H](O)[C@H](CC(C)C)NC(=O)[C@H](CC(N)=O)NC(=O)[C@H](CC(C)C)NC(=O)[C@H](OC(=O)[C@@H](OC(=O)[C@H](C(C)C)N(C)C)C(C)C)C(C)C)[C@@H](C)O [GRASSYSTATIN A] (NMe2Val-[Hiv][dHiv]LN[Sta]TA[dNMeF]P-OMe),Activity,[1],84%
same,Activity,[2],86%
same,Activity,[3],76%
same,Activity,Stromelysin-1,86%
same,Activity,Caspase-8 (Homo sapiens),82%
same,Activity,Caspase-3 (Homo sapiens),63%
same,Activity,Renin (Homo sapiens),96%
same,Activity,Caspase-7 (Homo sapiens),62%
same,Activity,[4],100%
same,Activity,Caspase-4 (Mus musculus),60%
same,IC50,Caspase-14,5 µM
same,Activity,Caspase-5 (Homo sapiens),58%
same,Activity,[5],101%
same,inhibition,[6],tde
same,Activity,[7],84%
same,IC50,Neutrophil collagenase [8],5 µM
same,Activity,[9],77%
same,IC50,[10],5 µM
same,Activity,Caspase-4 (Homo sapiens),64%
same,Activity,[11],130%
same,Activity,[12],80%
same,Activity,Neutrophil collagenase [13],70%
same,IC50,Stromelysin-2,5 µM
same,Activity,[14],82%
same,Activity,[15],102%
same,Activity,[16],84%
